Assay [1] deals with Leukotriene B4 receptor 1 (Mus musculus) (UniProt O88855). As to the kind of experiment: Inhibitory concentration against LTB4 receptor determined in mast cell line MC-9 assay.
The target of assay [2] is T1, Leukotriene B4 receptor 1 (Homo sapiens, UniProt Q15722). As to the kind of experiment: ChEBML_99664. The source says:
(§1) Inhibitory concentration against LTB4 receptor determined in human neutrophils PMN assay

The target in assay [3] is T1, Leukotriene B4 receptor 1. The assay is described as §1.

Consider three molecules from BindingDB's records for doi:10.1016/j.bmcl.2003.08.070 (Wyeth Research, 2003).

T1 sequence (Q15722 whole entry): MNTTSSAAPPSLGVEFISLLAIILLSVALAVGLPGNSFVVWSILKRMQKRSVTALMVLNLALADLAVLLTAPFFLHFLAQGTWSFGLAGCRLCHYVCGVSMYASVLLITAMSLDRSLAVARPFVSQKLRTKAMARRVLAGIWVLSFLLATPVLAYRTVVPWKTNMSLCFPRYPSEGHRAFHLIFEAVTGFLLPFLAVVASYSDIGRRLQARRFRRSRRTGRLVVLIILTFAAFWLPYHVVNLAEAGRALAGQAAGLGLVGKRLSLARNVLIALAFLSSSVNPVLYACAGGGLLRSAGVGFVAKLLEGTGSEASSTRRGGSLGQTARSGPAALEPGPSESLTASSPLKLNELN
Leukotriene B4 receptor 1 (Mus musculus), sequence (O88855 whole entry, looked up): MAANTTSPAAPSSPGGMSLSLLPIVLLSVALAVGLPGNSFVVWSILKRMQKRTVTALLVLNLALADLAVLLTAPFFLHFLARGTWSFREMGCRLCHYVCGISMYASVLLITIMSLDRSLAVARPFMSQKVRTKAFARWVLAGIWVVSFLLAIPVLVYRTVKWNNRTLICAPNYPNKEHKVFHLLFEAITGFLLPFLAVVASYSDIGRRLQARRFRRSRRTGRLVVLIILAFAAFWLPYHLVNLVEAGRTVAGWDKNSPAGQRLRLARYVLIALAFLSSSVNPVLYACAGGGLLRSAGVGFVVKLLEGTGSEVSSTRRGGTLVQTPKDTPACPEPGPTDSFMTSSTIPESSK

For `COc1cc(C(=O)O)ccc1Cc1cn(C(c2ccccc2)c2ccccc2)c2ccc(Br)cc12` [4-(1-Benzhydryl-5-bromo-1H-indol-3-ylmethyl)-3-methoxy-benzoic acid], the figures for the IC50 in assay [1] and in assay [2] were 1.1 µM and 0.4 µM, respectively.

The molecule `COc1cc(C(=O)O)ccc1Cc1cn(C(c2ccccc2)c2ccccc2)c2ccc(C)cc12` [4-(1-Benzhydryl-5-methyl-1H-indol-3-ylmethyl)-3-methoxy-benzoic acid] came in with a 50% inhibitory concentration (IC50) in assay [3] of 0.4 µM.

As to `COc1cc(C(=O)O)ccc1Cc1cn(C(c2ccccc2)c2ccccc2)c2ccc([N+](=O)[O-])cc12` [4-(1-Benzhydryl-5-nitro-1H-indol-3-ylmethyl)-3-methoxy-benzoic acid], the IC50 in assay [1] worked out at 2.8 µM; in assay [3] it was 0.5 µM.

For orientation: IC50 means the concentration at which inhibition is half-maximal. A high value points to a need for much substance.
